For data set [1] the following is noted: Crystal; DTA.
Data set [2] is described as follows: Molar enthalpy of transition or fusion. The note with it: Crystal; DSC.

Experimental findings from the NIST ThermoML archive (doi:10.1021/je0600552) are described below.

Numbers after ± are expanded uncertainties.

For the molecule `Cc1ccc2[nH]c3c(c2c1)CCCC3=O` [1-keto-1,2,3,4-tetrahydro-6-methylcarbazole], in data set [1], the Normal melting temperature was 195.30 ± 0.9 °C. Further, in data set [2], the “Molar enthalpy of transition or fusion” value amounted to 6.43 ± 0.143 kcal/mol.
